This note sets out measurements from patent publication US7595401B2, “Therapeutic compounds and their use in cancer” (Myriad Pharmaceuticals, Inc., priority 2006, dated 2009).

Broadly, the % Inhibition is the percentage by which the read-out fell short of the control. One may read the IC50 as the concentration at which inhibition is half-maximal. Lower therefore signals inhibition by little substance.

One test relates to purified human Hsp90. Description: Binding Assay: fluorescence polarization with BODIPY-labeled geldanamycin. The conditions noted are these: 5 μM compound, BODIPY-GM 10 nM, Hsp90 30 nM. In outline: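 Fluorescence polarization competition with BODIPY-geldanamycin (10 nM final) and human Hsp90 (30 nM final) in HEPES-KOH pH 7.3 buffer with molybdate, NP-40, DTT; 2% DMSO, overnight at room temperature. Read 485/530 nm; percent inhibition from mP normalized to DMSO controls, fluorescent-compound points excluded.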
On the technique in general: Polarisation of emitted light reports the rotation of a fluorescent probe.
Turning to `CC(C)[C@H](NC(=O)OC(C)(C)C)C(=O)N1CCCC(CCn2cnc(N)c3nc(Sc4cc5c(cc4Br)OCO5)nc2-3)C1` (stereo partly drawn) [Example 698, tert-Butyl((1S)-1-{[3-(2-{6-amino-8-[(6-bromo-1,3-benzodioxol-5-yl)thio]-3H-purin-3-yl}ethyl)piperidin-1-yl]carbonyl}-2-methylpropyl)carbamate], the “% Inhibition at 5 μM Compound Concentration” value (“% Inhibition” for short) came to 55%.
On to `Nc1ncn(CC(O)c2ccc(Cl)cc2Cl)c2nc(Sc3cc4c(cc3Br)OCO4)nc1-2` (stereo not drawn) [Example 178, 2-[6-amino-8-(6-bromo-benzo[1,3]dioxol-5-ylsulfanyl)-purin-3-yl]-1-(2,4-dichloro-phenyl)-ethanol], for which the “% Inhibition” value is 9%.
For `CC(=O)c1ccc(CCn2c(Sc3cc4c(cc3Br)OCO4)nc3c(N)ncnc32)cc1` [Example 159, 1-(4-{2-[6-Amino-8-(6-bromo-benzo[1,3]dioxol-5-ylsulfanyl)-purin-9-yl]-ethyl}-phenyl)-ethanone], the “% Inhibition” value was 63%.
Regarding `Nc1ncn(CCC2CC3CCC(C2)O3)c2nc(Sc3cc4c(cc3Br)OCO4)nc1-2` (stereo not drawn) [Example 606], the “% Inhibition” value came out at 49.00%.
Take `Nc1ncnc2c1nc(Sc1ccc3c(c1)OCO3)n2CCn1cccc1` [Example 49, 8-(Benzo[1,3]dioxol-5-ylsulfanyl)-9-(2-pyrrol-1-yl-ethyl)-9H-purin-6-ylamine]: the “% Inhibition” value is on record as 55%.
The same measure, in the same setting: the value for `Nc1ncn(CCn2cnc3ccccc3c2=O)c2nc(Sc3cc4c(cc3Br)OCO4)nc1-2` [Example 270, 3-(2-{6-Amino-8-[(6-bromo-1,3-benzodioxol-5-yl)thio]-3H-purin-3-yl}ethyl)quinazolin-4(3 H)-one] was 7.0%; that for `COc1ccc([N+](=O)[O-])cc1Sc1nc2c(N)ncn(CCc3ccccc3Cl)c-2n1` [Example 319, 3-[2-(2-Chlorophenyl)ethyl]-8-[(2-methoxy-5-nitrophenyl)thio]-3H-purin-6-amine] was 27.0%; that for `COc1ccc(OC)c(Sc2nc3c(N)ncn(CCc4ccc(Cl)cc4F)c-3n2)c1` [Example 98, 3-[2-(4-chloro-2-fluoro-phenyl)-ethyl]-8-(2,5-dimethoxy-phenylsulfanyl)-3H-purin-6-ylamine] was 0%.

Staying with this test, now noted: BODIPY-GM 10 nM, Hsp90 30 nM.
`C[C@H](N)C(=O)N1CCC(CCn2c(Sc3nc4cccc(Cl)c4s3)nc3c(N)ncnc32)CC1` [Example 774, 9-(2-{1-[(2S)-2-Aminopropanoyl]piperidin-4-yl}ethyl)-8-[(7-chloro-1,3-benzothiazol-2-yl)thio]-9H-purin-6-amine]: the half-inhibitory concentration (IC50) is 200 nM.
As to `CC(=O)N1CCC(CCn2c(Sc3ccc4c(c3)OCO4)nc3c(N)ncnc32)CC1` [Example 561, 9-[2-(1-Acetylpiperidin-4-yl)ethyl]-8-(1,3-benzodioxol-5-ylthio)-9 H-purin-6-amine], the concentration for half-maximal inhibition (IC50) is over 5000 nM.
The compound `COc1cc(F)c(Sc2nc3c(N)ncnc3n2CCC2CCN(C(C)=O)CC2)cc1F` [Example 559, 9-[2-(1-Acetylpiperidin-4-yl)ethyl]-8-[(2,5-difluoro-4-methoxyphenyl)thio]-9 H-purin-6-amine] registered an IC50 of over 5000 nM.
The same measure, in the same setting: for `CCOc1ccc(OCC)c(Sc2nc3c(N)ncnc3n2CCc2ccccc2Cl)c1` [Example 191, 9-[2-(2-Chloro-phenyl)-ethyl]-8-(2,5-diethoxy-phenylsulfanyl)-9H-purin-6-ylamine] the value was over 8000 nM; for `COc1ccccc1CCn1c(Sc2cc3c(cc2Br)OCO3)nc2c(N)ncnc21` [Example 287, 8-[(6-Bromo-1,3-benzodioxol-5-yl)thio]-9-[2-(2-methoxyphenyl)ethyl]-9H-purin-6-amine], 60 nM; for `C[C@H](NC(=O)OC(C)(C)C)C(=O)N1CCC(CCn2c(Br)nc3c(N)ncnc32)CC1` [Example 772, tert-Butyl ((1S)-2-{4-[2-(6-amino-8-bromo-9H-purin-9-yl)ethyl]piperidin-1-yl}-1-methyl-2-oxoethyl)carbamate], over 5000 nM.
`CC(=O)c1ccc(CCn2c(Sc3cc4c(cc3Br)OCO4)nc3c(N)ncnc32)cc1` [Example 159, 1-(4-{2-[6-Amino-8-(6-bromo-benzo[1,3]dioxol-5-ylsulfanyl)-purin-9-yl]-ethyl}-phenyl)-ethanone] had an IC50 of 800 nM. This lies in the sub-micromolar range.
Still for that read-out and setting: for `CC(C)(C)OC(=O)NC(CCn1c(Sc2cc3c(cc2Br)OCO3)nc2c(N)ncnc21)C1CCC1` (stereo not drawn) [Example 672, tert-Butyl(3-{6-amino-8-[(6-bromo-1,3-benzodioxol-5-yl)thio]-9H-purin-9-yl}-1-cyclobutylpropyl)carbamate] the value was 900 nM; for `CC(=O)N1CCN(CCn2cnc(N)c3nc(Sc4cc5c(cc4Br)OCO5)nc2-3)CC1` [Example 383, 3-[2-(4-Acetylpiperazin-1-yl)ethyl]-8-[(6-bromo-1,3-benzodioxol-5-yl)thio]-3H-purin-6-amine], 21000 nM.
Still for that read-out and setting: the value for `Nc1ncnc2c1nc(Sc1ccc3occc3c1)n2CCC1CCN(C=O)CC1` [Example 539, 4-{2-[6-Amino-8-(1-benzofuran-5-ylthio)-9 H-purin-9-yl]ethyl}piperidine-1-carbaldehyde] was over 5000 nM; that for `Nc1ncnc2c1nc(Sc1cc3c(cc1Br)OCO3)n2CC(c1ccccc1)C1CCCCC1` (stereo not drawn) [Example 226, 8-[(6-Bromo-1,3-benzodioxol-5-yl)thio]-9-(2-cyclohexyl-2-phenylethyl)-9H-purin-6-amine] was over 25000 nM.
The compound `Nc1ncnc2c1nc(Sc1ccc3c(c1)OCO3)n2CCn1cccc1` [Example 49, 8-(Benzo[1,3]dioxol-5-ylsulfanyl)-9-(2-pyrrol-1-yl-ethyl)-9H-purin-6-ylamine] registered an IC50 of 1200 nM.
`COc1ccc(OC)c(Sc2nc3c(N)ncnc3n2CCc2ccc(F)cc2)c1` [Example 9, 8-(2,5-Dimethoxy-phenylsulfanyl)-9-[2-(4-fluoro-phenyl)-ethyl]-9H-purin-6-ylamine] showed an IC50 of 1000 nM.
`COc1ccnc(Sc2nc3c(N)ncnc3n2CCC2CCN(C=O)CC2)c1` [Example 538, 4-(2-{6-Amino-8-[(4-methoxypyridin-2-yl)thio]-9 H-purin-9-yl}ethyl)piperidine-1-carbaldehyde] yielded an IC50 of 1600 nM.
`Cc1cc(C)c(CCn2c(Sc3cc4c(cc3Br)OCO4)nc3c(N)ncnc32)c(C)c1` [Example 93, 8-(6-Bromo-benzo[1,3]dioxol-5-ylsulfanyl)-9-[2-(2,4,6-trimethyl-phenyl)-ethyl]-9H-purin-6-ylamine]: the IC50 is 190 nM. Against the preceding compound, the IC50 is about 8.4-fold lower.
In turn, `Nc1ncnc2c1nc(Sc1ccc3c(c1)OC(F)(F)O3)n2CCc1ccccc1Cl` [Example 294, 9-[2-(2-Chlorophenyl)ethyl]-8-[(2,2-difluoro-1,3-benzodioxol-5-yl)thio]-9H-purin-6-amine] registered an IC50 of over 25000 nM.
`COc1ccc(OC)c(Sc2nc3c(N)ncnc3n2CCc2ccc(Cl)cc2F)c1` [Example 97, 9-[2-(4-Chloro-2-fluoro-phenyl)-ethyl]-8-(2,5-dimethoxy-phenylsulfanyl)-9H-purin-6-ylamine] showed an IC50 of 450 nM. That is a sub-micromolar value.
`CC(=O)N1CCC(CCn2c(Sc3nc4ccc([N+](=O)[O-])cc4s3)nc3c(N)ncnc32)CC1` [Example 651, 9-[2-(1-Acetylpiperidin-4-yl)ethyl]-8-[(6-nitro-1,3-benzothiazol-2-yl)thio]-9H-purin-6-amine] displayed an IC50 of over 5000 nM.
Turning to `Nc1ncnc2c1nc(Sc1cc3c(cc1Br)OCO3)n2CCC1CCN(Cc2ccc(Cl)cc2)CC1` [Example 573, 8-[(6-Bromo-1,3-benzodioxol-5-yl)thio]-9-{2-[1-(4-chlorobenzyl)piperidin-4-yl]ethyl}-9 H-purin-6-amine], the half-maximal inhibitory concentration (IC50) was determined as 1400 nM.
Regarding `CC(C)n1nnnc1N1CCC(CCn2c(Sc3cc4c(cc3Br)OCO4)nc3c(N)ncnc32)CC1` [Example 612, 8-[(6-Bromo-1,3-benzodioxol-5-yl)thio]-9-{2-[1-(1-isopropyl-1 H-tetrazol-5-yl)piperidin-4-yl]ethyl}-9 H-purin-6-amine], the IC50 worked out at 230 nM.
Still for that read-out and setting: the value for `C[C@@H](NC(=O)OC(C)(C)C)C(=O)N1CCCC(CCn2c(Sc3cc4c(cc3Br)OCO4)nc3c(N)ncnc32)C1` (stereo partly drawn) [Example 701, tert-Butyl{(1R)-2-[3-(2-{6-amino-8-[(6-bromo-1,3-benzodioxol-5-yl)thio]-9H-purin-9-yl}ethyl)piperidin-1-yl]-1-methyl-2-oxoethyl}carbamate] was 200 nM.
Regarding `N#Cc1ccc(Sc2nc3c(N)ncnc3n2CCc2ccccc2)cc1` [Example 19, 4-(6-Amino-9-phenethyl-9H-purin-8-ylsulfanyl)-benzonitrile], the IC50 is over 10000 nM.
The compound `Nc1ncnc2c1nc(Sc1cc3c(cc1Br)OCO3)n2CC[C@@H]1CCNC1` [Example 484, 8-[(6-Bromo-1,3-benzodioxol-5-yl)thio]-9-{2-[(3S)-pyrrolidin-3-yl]ethyl}-9 H-purin-6-amine] came in with an IC50 of 600 nM.
For the compound `Nc1ncnc2c1nc(Sc1cc3c(cc1Br)OCO3)n2CCC1CCN(Cc2ccc(F)cc2)CC1` [Example 579, 8-[(6-Bromo-1,3-benzodioxol-5-yl)thio]-9-{2-[1-(4-fluorobenzyl)piperidin-4-yl]ethyl}-9 H-purin-6-amine], the half-maximal inhibitory concentration (IC50) was 310 nM. Compared with the last compound, the IC50 is about 1.9-fold lower.
In the case of `Nc1ncnc2c1nc(Sc1cc3c(cc1Br)OCO3)n2CCC1CCN(C(=O)C2CC2(F)F)CC1` (stereo not drawn) [Example 524, 8-[(6-Bromo-1,3-benzodioxol-5-yl)thio]-9-(2-{1-[(2,2-difluorocyclopropyl)carbonyl]piperidin-4-yl}ethyl)-9 H-purin-6-amine], the half-inhibitory concentration (IC50) worked out at 100 nM.
With `CCCCNC(=O)Nc1ccc(CCn2c(Sc3cc(OC)ccc3OC)nc3c(N)ncnc32)cc1` [Example 277, N-[4-(2-{6-Amino-8-[(2,5-dimethoxyphenyl)thio]-9H-purin-9-yl}ethyl)phenyl]-N′-butylurea], the IC50 was over 8000 nM.
The same measure, in the same setting: for `COc1cc(Sc2nc3c(N)ncnc3n2CCc2ccccc2Cl)c(OC)cc1Cl` [Example 260, 8-[(4-Chloro-2,5-dimethoxyphenyl)thio]-9-[2-(2-chlorophenyl)ethyl]-9H-purin-6-amine] the value was 1500 nM; for `COc1c(Sc2nc3c(N)ncnc3n2CCC2CCN(C=O)CC2)cc(C)c2c1CCC2` [Example 556, 4-(2-{6-Amino-8-[(4-methoxy-7-methyl-2,3-dihydro-1 H-inden-5-yl)thio]-9 H-purin-9-yl}ethyl)piperidine-1-carbaldehyde], 2000 nM.
